Columns and labels:
[1] = tested on: GABA-B; assay: CNS side effect panel, [^3H]CGP 54626A; format: binding; settings: pentamidine 1.0E^-5 M
[2] = tested on: Potassium Channel, Ca2+ Act., VI; assay: CNS side effect panel, [^125I]Apamin; format: binding; settings: pentamidine 1.0E^-5 M
[3] = tested on: Rat NMDA receptor; settings: Rat brain membrane 3H-dizocilpine binding; cited from earlier work
[4] = tested on: Potassium Channel, ATP-Sensitive; assay: CNS side effect panel, [^3H]Glibenclamide; format: binding; settings: pentamidine 1.0E^-5 M
[5] = tested on: Glutamate, Kainate Site (Ionotropic); assay: CNS side effect panel, [^3H]Kainic acid; format: binding; settings: pentamidine 1.0E^-5 M
[6] = tested on: Sodium, Site 2; assay: CNS side effect panel, [^3H]Batrachotoxin A 20-a-Benzo; format: binding; settings: pentamidine 1.0E^-5 M
[7] = target: Histamine, H2 (Cavia porcellus, UniProt P47747); assay: CNS side effect panel, [^125I]-Aminopotentidine; format: binding
[8] = target: T1, Dopamine, D2s (h) (Homo sapiens, UniProt P14416); assay: CNS side effect panel, [^3H]-Raclopride; format: binding; settings: pentamidine 1.0E^-5 M
T1 construct: purchased Perkin-Elmer Science Discovery Systems (NovaScreen), customised CNS screening panel

[9] = tested on: Adrenergic, Alpha 1, Non-selective; assay: CNS side effect panel, [^3H]7-MeOxy-Prazosin; format: binding; settings: pentamidine 1.0E^-5 M
[10] = tested on: Nicotinic, Neuronal (a-BnTx insensitive); assay: CNS side effect panel, [^3H]Epibatidine; format: binding; settings: pentamidine 1.0E^-5 M
[11] = tested on: Corticotropin Releasing Factor, Non-selective; assay: CNS side effect panel, [^125I]Tyr0-oCRF; format: binding; settings: pentamidine 1.0E^-5 M
[12] = tested on: Glutamate, MK-801 Site (Ionotropic); assay: CNS side effect panel, [^3H]MK-801; format: binding; settings: pentamidine 1.0E^-5 M
[13] = tested on: Glutamate, NMDA Agonist Site (Ionotropic); assay: CNS side effect panel, [^3H]CGP 39653; format: binding; settings: pentamidine 1.0E^-5 M
[14] = tested on: Norepinephrine Transporter; assay: CNS side effect panel, [^3H]Nisoxetine; format: binding; settings: pentamidine 1.0E^-5 M
[15] = target: Imidazoline, I2 [central]; assay: CNS side effect panel, [^3H]2-BFI; format: binding
[16] = tested on: P-gp (human MDR1); assay: in vitro; settings: dog
[17] = tested on: Decarboxylase, Glutamic Acid; assay: CNS side effect panel, [^14C]Glutamic acid; format: biochemical; settings: pentamidine 1.0E^-5 M
[18] = tested on: Esterase, Acetylcholine; assay: CNS side effect panel, Acetylthiocholine; format: biochemical; settings: pentamidine 1.0E^-5 M
[19] = tested on: Angiotensin II, AT2; assay: CNS side effect panel, [^125I]Tyr4-Angiotensin II; format: binding; settings: pentamidine 1.0E^-5 M
[20] = target: T2, Dopamine, D1 (h) (Homo sapiens, UniProt P21728); assay: CNS side effect panel, [^3H]-SCH23390; format: binding; settings: pentamidine 1.0E^-5 M
T2 construct: purchased Perkin-Elmer Science Discovery Systems (NovaScreen), customised CNS screening panel
T2 sequence (P21728 whole entry): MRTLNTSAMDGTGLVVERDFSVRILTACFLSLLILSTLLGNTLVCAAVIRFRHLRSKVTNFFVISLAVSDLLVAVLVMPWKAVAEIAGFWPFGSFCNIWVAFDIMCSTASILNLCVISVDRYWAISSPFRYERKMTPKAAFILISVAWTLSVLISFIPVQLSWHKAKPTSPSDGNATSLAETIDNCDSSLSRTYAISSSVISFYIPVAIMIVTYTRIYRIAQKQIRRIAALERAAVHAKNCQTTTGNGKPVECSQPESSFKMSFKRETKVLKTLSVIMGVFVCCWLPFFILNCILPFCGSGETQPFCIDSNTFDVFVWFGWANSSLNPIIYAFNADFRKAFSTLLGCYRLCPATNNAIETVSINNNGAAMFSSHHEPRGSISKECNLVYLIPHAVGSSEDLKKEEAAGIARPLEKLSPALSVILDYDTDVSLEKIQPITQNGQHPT

Chain of Histamine, H2 (P47747 whole entry): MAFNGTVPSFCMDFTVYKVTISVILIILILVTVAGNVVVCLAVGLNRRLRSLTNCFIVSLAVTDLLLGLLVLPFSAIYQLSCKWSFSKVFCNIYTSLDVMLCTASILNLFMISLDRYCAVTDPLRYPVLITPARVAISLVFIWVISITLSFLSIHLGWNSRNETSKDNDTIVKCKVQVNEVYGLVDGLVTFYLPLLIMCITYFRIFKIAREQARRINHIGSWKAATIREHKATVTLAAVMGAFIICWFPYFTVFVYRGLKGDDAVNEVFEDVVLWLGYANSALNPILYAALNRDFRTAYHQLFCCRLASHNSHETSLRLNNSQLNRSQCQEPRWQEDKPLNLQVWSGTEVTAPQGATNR
T1 sequence (P14416 1-414 isoform P14416-2): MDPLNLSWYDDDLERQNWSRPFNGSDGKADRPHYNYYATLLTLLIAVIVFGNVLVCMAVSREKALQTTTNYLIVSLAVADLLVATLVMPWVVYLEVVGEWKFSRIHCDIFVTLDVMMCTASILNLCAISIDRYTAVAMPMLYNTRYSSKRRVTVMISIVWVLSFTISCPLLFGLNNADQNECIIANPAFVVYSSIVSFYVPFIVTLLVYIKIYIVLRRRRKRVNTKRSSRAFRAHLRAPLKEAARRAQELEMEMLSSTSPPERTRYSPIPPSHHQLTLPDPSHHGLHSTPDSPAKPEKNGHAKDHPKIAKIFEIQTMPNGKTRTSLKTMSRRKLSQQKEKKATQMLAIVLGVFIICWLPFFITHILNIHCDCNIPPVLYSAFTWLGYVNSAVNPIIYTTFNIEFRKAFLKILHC

## N=C(N)c1ccc(OCCCCCOc2ccc(C(=N)N)cc2)cc1 [Pentamidine, 1,5-bis-4ρ-amidinophenoxypentane]
[1]
  Percent Inhibition: 10.74%
[2]
  Percent Inhibition: 2.07%
[3]
  Affinity: 1.8 µM
[4]
  Percent Inhibition: 6.07%
[5]
  Percent Inhibition: -13.63%
[6]
  Percent Inhibition: 46.94%
[7]
  Ki: 7.21 µM
[7]; pentamidine 1.0E^-5 M
  Percent Inhibition: 71.07%
[8]
  Percent Inhibition: 20.12%
[9]
  Percent Inhibition: 100.77%
[10]
  Percent Inhibition: 10.87%
[11]
  Percent Inhibition: 17.05%
[12]
  Percent Inhibition: 6.25%
[13]
  Percent Inhibition: 5.99%
[14]
  Percent Inhibition: 21.39%
[15]; Imidazoline 1_2, concentration-response
  Ki: 0.001 µM
[15]; pentamidine 1.0E^-5 M
  Percent Inhibition: 101.03%
[16]; MDCK-MDR1, pH 7.4, Papp B2A Replicate 1
  Papp B→A at 1 h, 10 µM: 0.336 ×10⁻⁶ cm/s
[16]; MDCK-MDR1, pH 7.4, Papp B2A Replicate 2
  Papp B→A at 1 h, 10 µM: 0.357 ×10⁻⁶ cm/s
[16]; MDCK-MDR1, pH 7.4, Papp basal to apical
  Papp B→A at 1 h, 20 µM: 0.418 ×10⁻⁶ cm/s
[17]
  Percent Inhibition: -1.41%
[18]
  Percent Inhibition: 23.21%
[19]
  Percent Inhibition: 2.96%
[20]
  Percent Inhibition: 27.48%

From publication PMC8078842 (PLoS Neglected Tropical Diseases, 2021)
